{
  "source": "patent US20100184704A1",
  "about": "“USE OF THE PEPTIDE GLY-ARG-GLY-ASP-ASN-PRO AS A THERAPEUTIC AGENT” (priority 2007, published 2010)",
  "system": "drug-resistant Mycobacterium tuberculosis",
  "details": "5 micrograms per ml",
  "note": "Where a SMILES comes first, the peptide text is derived from it.",
  "data": [
    {"smiles": "N=C(N)NCCC[C@H](NC(=O)CN)C(=O)NCC(=O)N[C@@H](CC(=O)O)C(=O)N[C@@H](CC(N)=O)C(=O)N1CCC[C@H]1C(=O)O", "note": "[Gly-Arg-Gly-Asp-Asn-Pro, Gly-Arg-Gly-Asp-Asn-Pro-OH] (H-GRGDNP-OH)", "values": [
      {"measurement": "% inhibition", "value": 0.0, "unit": "%"}
    ]}
  ]
}
